Test results as given in US20020042393A1, “Excipient” (priority 1998, published 2002).

What was measured:
Type in all cases: physicochemical
Apparent specific volume = conditions: excipient powder; listed as B
Text: The whole of 10 g of trehalose powder was gently poured into a 100-ml measuring cylinder without making an impact (in this case, a cylinder having an outside diameter smaller than the inside diameter of the measuring cylinder was placed in the measuring cylinder, and it was slowly lifted after pouring the trehalose), and the apparent specific volume was expressed as a value obtained by dividing the read volume by the weight of the trehalose.

[1] = Water content (Karl Fisher) of tablets before and after storage; conditions: tablets compressed at 500 kg/cm^2; 0 day; listed as B
Procedure: Determined as a value obtained by measuring about 0.1 g of trehalose and determining its water content by the Karl Fisher method.
One hundred grams of commercial “Trehaose” (available from Hayashibara Biochemical Laboratories, Inc.) was dissolved in water to a concentration of about 35 wt %, and the resulting solution was concentrated under reduced pressure with heating at 60° C. so as to have a concentration of about 75 wt %, and allowed to stand at room temperature to precipitate crystals, which were washed with 50 ml of water. Glucose was removed by carrying out the above purification procedure once or twice, to increase the trehalose purity. Trehalose A was obtained by carrying out the purification procedure twice to obtain crystals, drying the crystals, grinding the dried crystals with a bantam mill (number of revolutions 15,000 rpm, feed rate 5 kg/hr, and screen opening 2.0 mmφ), and then sifting the ground crystals through a […]. Trehalose B was obtained by carrying out the purification procedure once to obtain crystals, drying the crystals, grinding the dried crystals with a bantam mill (number of revolutions 10,000 rpm, feed rate 5 kg/hr, and screen opening 2.00 mmφ), and then sifting the ground crystals through a 350-μm screen. Trehalose C was obtained by carrying out the purification procedure once to obtain crystals, drying the crystals, grinding the dried crystals with a bantam mill (number of revolutions 8,000 rpm, feed rate 5 kg/hr, and screen opening 2.0 mmφ), and then sifting the ground crystals through a 350-μm screen. […] Each of trehaloses A to C was compressed into tablets at a compression pressure of 500 kg/cm^2, and the tablet hardness immediately after the compression and the tablet hardness after standing for 3 days in an atmosphere of 40° C. and 75% RH after the compression were compared.
“Trehaose” (available from Hayashibara Bioscience Laboratories Co., Ltd.) was purified once by the method described in Example 1 to obtain crystals, which were dried, ground with a bantam mill (number of revolutions 12,000 rpm, feed rate 5 kg/hr, and screen opening 2.0 mmφ) and then dried at 105° C. for 4 hours to obtain trehalose anhydrous crystals. These crystals were compressed into tablets at a compression pressure of 500 kg/cm^2, and the tablet hardnesses of the tablets were compared in the same manner as in Example 1.

[2] = Proportion of particles of 75 μm or more (Air Jet Sieve); conditions: excipient powder; listed as B
Procedure: Five grams of trehalose was weighed onto a screen having a screen opening of 75 μm, and sifted with Air Jet Sieve (Model 200LS, mfd. by ALPINE) for 5 minutes, and the weight percentage of the weight of particles remaining on the screen based on the total weight of particles was calculated as the proportion of particles of 75 μm or more.

[3] = Angle of repose (Sugiwara's instrument); conditions: excipient powder; listed as B
Text: Measured by means of a Sugiwara's instrument for measuring angle of repose (Yakuzaigaku 27, p. 260, 1965).

[4] = Change in whiteness of excipient mixed with drug at 40° C. and 75% RH (reactivity); conditions: listed as B
Procedure: (§1) For powder of trehalose or a pharmaceutical composition containing trehalose, values of L, a and b were measured with a color analyzer (TC-1800MKII, mfd. by Tokyo Denshoku Co., Ltd.), and the whiteness of the trehalose or pharmaceutical composition was calculated by the following equation: […]
One gram of each of the trehaloses obtained in Example 1 and 1 g of isoniazid were mixed and then allowed to stand in an atmosphere of 40° C. and 75% RH, and the change in whiteness of the trehalose was observed. On the other hand, 1 g of each of the trehaloses obtained in Example 1 and 1 g of aminophyline were mixed and then allowed to stand in an atmosphere of 40° C. and 75% RH, and the change in whiteness of the trehalose was observed.
One gram of 100-mesh lactose (available from De Melkindustrie Veghel bv) or 1 g of Mannit S (available from Tohwa Kasei Co., Ltd.) and 1 g of aminophyline were mixed and then allowed to stand in an atmosphere of 40° C. and 75% RH, and the change in whiteness of the lactose or Mannit S was observed.
As a starting material. […]

[5] = Tablet hardness (Schleuniger hardness meter); conditions: listed as B
[6] = Colour change of molded product stored at 40° C. for 3 months; conditions: Example 9 process molded product in glass bottle
Procedure: This molded product and the rapidly disintegrable molded product obtained in Example 9 by using the trehalose B were placed in separate glass bottles, respectively, and stored at 40° C. for 3 months.

[7] = Whiteness of powder (color analyzer); conditions: excipient powder; listed as B
Procedure: as §1

[8] = Average particle size (sieving, 50% cumulative weight); conditions: excipient powder; listed as B
Procedure: Five grams of trehalose was sifted through screens having screen openings of 500 μm, 300 μm and 250 μm, respectively, and then sifted with Air Jet Sieve by using screens having screen openings of 150 μm, 75 μm, 45 μm, 38 μm and 32 μm, respectively. The oversize particle weight percentage [%] was calculated for each screen, and the average particle size is expressed as a particle size corresponding to a cumulative weight percentage of 50%.

[9] = Disintegration time according to Japanese Pharmacopoeia; conditions: listed as B
Procedure: The disintegration time of each of six molded products was measured by the use of ion-exchanged water according to the disintegration time measuring method prescribed in the 13th revised Japanese Pharmacopoeia, and the average of measured values was calculated.

[10] = Example 10: as Example 9 but molded at 60 kg/cm^2

Apparent specific volume (Apparent specific volume): 2.2 cm^3/g
Water content [1]: 9.8%
Proportion of particles of 75 μm or more [2]: 46%
Angle of repose [3]: 42 °
Whiteness ([4]; 1 g excipient + 1 g aminophyline, 0 day): 99%
Whiteness ([4]; 1 g excipient + 1 g aminophyline, 40° C. and 75% RH, 1 month): 97%
Whiteness ([4]; 1 g excipient + 1 g isoniazid, 0 day): 98%
Whiteness ([4]; 1 g excipient + 1 g isoniazid, 40° C. and 75% RH, 1 month): 96%
Tablet hardness ([5]; Example 8: molded product of trehalose only, molded at 30 kg/cm^2, dried overnight at 40° C.): 6.6 kg
Tablet hardness [5, 10]: 9.4 kg
Tablet hardness ([5]; process of Example 9: 950 g excipient + 50 g phenylpropanolamine hydrochloride, molded at 30 kg/cm^2): 6.5 kg
Tablet hardness ([5]; tablets compressed at 500 kg/cm^2, 0 day (immediately after compression)): 2.5 kgf
Tablet hardness ([5]; tablets compressed at 500 kg/cm^2, 3 days at 40° C. and 75% RH): 2.4 kgf
Change in color of molded product [6]: somewhat yellowed
Whiteness [7]: 97%
Average particle size [8]: 72 μm
Disintegration time according to Japanese Pharmacopoeia ([9]; Example 8: molded product of trehalose only, 30 kg/cm^2): 12 s
Disintegration time according to Japanese Pharmacopoeia [9, 10]: 45 s
Disintegration time according to Japanese Pharmacopoeia ([9]; process of Example 9: 950 g excipient + 50 g phenylpropanolamine hydrochloride, 30 kg/cm^2): 14 s
Compound: OC[C@H]1O[C@H](O[C@H]2O[C@H](CO)[C@@H](O)[C@H](O)[C@H]2O)[C@H](O)[C@@H](O)[C@@H]1O [Trehalose B, trehalose]
